From patent US6852863B2, “Metabolites of (3-{[4-tert-butyl-benzyl)-(pyridine-3-sulfonyl)-amino]-methyl}-phenoxy)-acetic acid” (Pfizer Inc., priority 2002, dated 2005)

Tests used:
[1] = molecular target: T1, rat EP2 prostaglandin E2 receptor (Rattus norvegicus, UniProt Q62928); assay: Rat EP2 receptor binding assay (displacement of 3H-prostaglandin E2); conditions: 293S cell membranes expressing rat EP2, 3 nM 3H-prostaglandin E2, 1 hour at 25° C.
T1 construct: This full length receptor is used to prepare 293S cells expressing the EP2 receptor; expressed in transfected cells; membranes used in the assay
T1 sequence (Q62928 whole entry): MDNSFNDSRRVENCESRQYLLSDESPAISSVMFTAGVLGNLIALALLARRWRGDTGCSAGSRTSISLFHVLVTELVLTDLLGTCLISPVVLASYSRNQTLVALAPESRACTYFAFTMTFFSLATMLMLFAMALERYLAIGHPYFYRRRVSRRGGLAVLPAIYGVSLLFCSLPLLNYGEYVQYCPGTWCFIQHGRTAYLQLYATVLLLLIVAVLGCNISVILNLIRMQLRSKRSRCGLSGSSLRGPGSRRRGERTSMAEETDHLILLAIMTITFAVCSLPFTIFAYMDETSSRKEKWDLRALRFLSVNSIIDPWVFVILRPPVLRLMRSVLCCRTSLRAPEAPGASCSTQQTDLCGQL
Text: Rat EP2 Recptor Binding Assay
Assay for Binding to Prostaglandin E2 Receptors
The full length EP2 receptor is made as disclosed in Nemoto et al., Prostaglandins and other Lipid Mediators, 1997, 54, 713-725. This full length receptor is used to prepare 293S cells expressing the EP2 receptor.
293S cells expressing the rat EP2 prostaglandin E2 receptor are generated according to methods known to those skilled in the art. Typically, PCR (polymerase chain reaction) primers corresponding to the 5′ and 3′ ends of the published full length receptor are made according to the well known methods disclosed above and are used in an RT-PCR reaction using the total RNA from rat kidney as a source. […]
Membrane Preparation: All operations are performed at 4° C. […] Pelleted membranes are resuspended to 3-10 mg protein per ml, protein concentration being determined of the method of Bradford [Bradford, M., Anal. Biochem., 72, 248 (1976)]. […]
Binding Assay: Frozen membranes prepared as above are thawed and diluted to 1 mg protein per ml in Buffer A above. […] To determine the amount of ^3H-prostaglandin bound to the membranes, the dried filters are placed into plastic bags with scintillation fluid and counted in a LKB 1205 Betaplate reader (Wallac, Gaithersburg, Md.). […]

[2] = Metabolism of 14C-parent in monkey liver microsomes; format: in vitro ADME; conditions: 20 μM 14C-parent, NADPH, 30 minutes, 37° C.; HPLC radiochromatogram peak
Description: (§1) Human (HL-mix 12), rat, monkey and dog liver microsomes were prepared by differential centrifugation using standard procedures. Prior to use, liver microsomes were thawed on ice and reconstituted using 100 mM potassium phosphate pH 7.4. [^14C]-(3-{[4-tert-butyl-benzyl)-(pyridine-3-sulfonyl)-amino]-methyl}-phenoxy)-acetic acid was dissolved 100 mM potassium phosphate pH 7.4 at a final substrate concentration of 20 μM. Samples were pre-incubated for 3 min with microsomes (CYP 450; 0.5 μM) at 37° C. in a shaking water bath. Incubations were initiated with the addition of 100 μl cofactor (1.1 mM NADPH, 10 mM MgCl2) per 1 ml of incubation mixture. Incubations were stopped after 30 minutes by the addition of an equal volume of cold acetonitrile.
(§2) Metabolite quantification was performed by measuring the areas of individually separated HPLC peaks using the β-RAM (IN/US, Win-flow). […]
(§3) Identification of the metabolites was performed using a Finnigan TSQ 7000 triple quadrupole mass spectrometer equipped with an API-2 electrospray interface. […] The β-RAM response was recorded as a real time analog signal by the MS data collection system. The collected data from the radioactivity and MS detectors were separated by the dwell volume of flow from the MS to the radioactivity detector (corresponding to a dwell time of about 0.2 min.). […]

[3] = Metabolism of 14C-parent in rat liver microsomes; format: in vitro ADME; conditions: 20 μM 14C-parent, NADPH, 30 minutes, 37° C.; HPLC radiochromatogram peak
Description: as §1, §2, §3

[4] = system: Dog hepatocytes; assay: Metabolism of parent in dog hepatocytes; format: in vitro ADME, Beagle dogs; conditions: 20 μM parent, 2 million cells per ml, 4 hours, 37° C.
Description: (§4) Human hepatocytes were generated from a mix of 3 livers. Rat and monkey hepatocytes were generated using Sprague Dawley rats (12 livers), Cynomolgus monkey (1 liver) and Beagle dogs (2 livers). Cryopreserved hepatocytes were suspended in William's E media with 10% FBS to a viable count of 2 million cells per ml and gassed with 95/5 O2/CO2 initially and every hour of incubations. After the addition of 20 μM (3-{[4-tert-butyl-benzyl)-(pyridine-3-sulfonyl)-amino]-methyl}-phenoxy)-acetic acid to a 25 ml Erlenmeyer flask, 2.5 ml of hepatocytes suspension was added and incubated for 4 hours at 37° C. in a shaking water bath.
(§5) Metabolite quantification was performed by measuring the areas of individually separated HPLC peaks using the β-RAM (IN/US, Win-flow). The β-RAM provided integrated peak representation printouts in CPM as well as the percentage of the radiolabeled material. The β-RAM was operated using a solid scintillation cell.
Incubations were stopped by the addition of an equal volume of cold acetonitrile, sonicated and centrifuged at 3000 rpm for 10 minutes. The supernatants were removed and evaporated to dryness under nitrogen. Residues were reconstituted in 50:50 (acetonitrile: water) and aliquots (50-90 μl) were injected onto the HPLC system for analysis.
The HPLC system consisted of a HP-1100 solvent delivery system, a HP-1100 membrane degasser, a HP-1100 autoinjector (Hewlett Packard) and an IN/US radioactive monitor (β-RAM). Chromatography was performed on a YMC AQ (C-18) column (4.6 mm×150 mm, 3 μm) (Waters, Milford, Mass.). […]
as §3

[5] = Metabolism of 14C-parent in dog liver microsomes; format: in vitro ADME; conditions: 20 μM 14C-parent, NADPH, 30 minutes, 37° C.; HPLC radiochromatogram peak
Description: as §1, §2, §3

[6] = system: Rat hepatocytes; assay: Metabolism of parent in rat hepatocytes; format: in vitro ADME, Sprague Dawley rats; conditions: 20 μM parent, 2 million cells per ml, 4 hours, 37° C.
Description: as §4
as §5, with “cell. […]” for “cell.”
as §3

[7] = system: Monkey hepatocytes; assay: Metabolism of parent in monkey hepatocytes; format: in vitro ADME, Cynomolgus monkey; conditions: 20 μM parent, 2 million cells per ml, 4 hours, 37° C.; mobile phase pH 5.0
Description: as §4
as §5, with “cell. […]” for “cell.”
as §3

Compound | Percent of Radioactivity, Dog hepatocytes [4] [%] | Percent of Radioactivity, Rat hepatocytes [6] [%] | further results
CC(C)(C(=O)O)c1ccc(CN(Cc2cccc(OCC(=O)O)c2)S(=O)(=O)c2cccnc2)cc1 [Metabolite M3, 2-(4-{[(3-carboxymethoxy-benzyl)-(pyridine-3-sulfonyl)-amino]-methyl}-phenyl)-2-methyl-propionic acid] |  |  | IC50 [1]: 750 nM
CC(C)(C(=O)O)c1ccc(CNS(=O)(=O)c2cccnc2)cc1 [Metabolite M11, 2-methyl-2-{4-[(pyridine-3-sulfonylamino)-methyl]-phenyl}-propionic acid] |  |  | Percent of Radioactivity, Monkey liver microsomes [2]: 7.97%; Percent of Radioactivity, Rat liver microsomes [3]: 20.7%
CC(C)(C)c1ccc(CN(Cc2ccc(O)c(OCC(=O)O)c2)S(=O)(=O)c2cccnc2)cc1 [Metabolite M12, (5-{[(4-tert-butyl-benzyl)-(pyridine-3-sulfonyl)-amino]-methyl}-hydroxy-phenoxy)-acetic acid] | 15.0 |  | 
CC(C)(C)c1ccc(CNS(=O)(=O)c2cccnc2)cc1 [Metabolite M20, pyridine-3-sulfonic acid 4-tert-butyl-benzylamide] |  |  | Percent of Radioactivity, Dog liver microsomes [5]: 1.96%
CC(C)(CO)c1ccc(CNS(=O)(=O)c2cccnc2)cc1 [Metabolite M21, pyridine-3-sulfonic acid 4-(2-hydroxy-1,1-dimethyl-ethyl)-benzylamide] | 7.92 | 8.91 | Percent of Radioactivity, Monkey hepatocytes [7]: 4.53%
dihydroxy (3-{[4-tert-butyl-benzyl)-(pyridine-3-sulfonyl)-amino]-methyl}-phenoxy)-acetic acid [Metabolite M2] | 6.59 | 15.1 | 
